Laboratory results published in patent publication US7348160B2, “Phosphoamidase assay” (Merck Patent GmbH, priority 2002, dated 2008).
Where two headings read alike, the source gives them in different places.

Columns and labels:
[1] = biological target: T1, PHP1 (Homo sapiens, UniProt Q9NRX4); assay: pH-dependence of conversion of fluorogenic and chromogenic substrates by PHP1; format: biochemical; details: for acceptance as substrate by PHP1: pH 5-9, 0.1 μM PHP1; for turnover rate by PHP1 in more alkaline media: pH above the maximum, up to pH 9
T1 sequence (Q9NRX4 1-125): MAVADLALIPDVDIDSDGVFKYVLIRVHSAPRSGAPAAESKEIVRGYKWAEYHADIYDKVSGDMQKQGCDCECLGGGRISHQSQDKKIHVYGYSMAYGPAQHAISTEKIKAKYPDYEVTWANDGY
Description: Because it is well known that the use of phospho fluorophores like DIFMUP, MUP, DDAO or FDP as phosphatase substrates have certain limitations due to the compatibility of the substrate pKa-values with the pH-optima of the respective phosphatase, the pH-dependence of the PHP1 reactivity towards the aforementioned fluorogenic substrates is to be determined. As shown in FIG. 1 the pH is varied from pH=5-9 in steps of 0.5 pH-units. In order to avoid undesired fluorescence flattening effects due to high absorption by the accumulating reaction product the initial reaction velocity is used as relative measure for the pH-dependence of PHP1-reactivity towards the selected substrate.
To start the reaction PHP1 was added from a pre dilution in the respective reaction buffer to yield a final concentration of 0.1 μM. The reaction was monitored by recording the increase in relative fluorescence at the respective fluorescence emission maxima (Fluoromax Gemini XL microplate reader).

[2] = biological target: T2, T-cell tyrosine phosphatase (Homo sapiens, UniProt P17706); details: from literature (Kerby et al. 2001); cited from earlier work
T2 sequence (P17706 1-415): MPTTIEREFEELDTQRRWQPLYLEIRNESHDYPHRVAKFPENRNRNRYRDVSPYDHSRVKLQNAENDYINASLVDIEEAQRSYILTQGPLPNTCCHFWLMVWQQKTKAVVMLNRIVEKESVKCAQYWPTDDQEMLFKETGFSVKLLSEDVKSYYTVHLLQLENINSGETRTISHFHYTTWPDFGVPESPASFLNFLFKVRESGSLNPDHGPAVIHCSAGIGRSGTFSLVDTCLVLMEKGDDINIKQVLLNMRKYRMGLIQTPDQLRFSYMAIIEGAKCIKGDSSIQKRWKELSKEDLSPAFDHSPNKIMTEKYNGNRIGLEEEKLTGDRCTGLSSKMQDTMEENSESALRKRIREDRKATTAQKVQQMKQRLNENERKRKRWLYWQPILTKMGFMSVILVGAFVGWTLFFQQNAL

[3] = biological target: T1, PHP1; assay: Kinetic analysis of the conversion of FDP and DiFMUP by PHP1; format: biochemical; details: pH 7.0, 0.1 μM PHP1
Procedure: The KM-values for DiFMUP and FDP can be approximated by recording the initial reaction velocity in dependence of the substrate concentration, as observed by the increase in relative fluorescence at the respective fluorescence emission maxima upon addition of PHP1. […] This effect limits the range of substrate variation. For FDP concentrations >20 μM the signal quenching disturbs reaction rate measurements detrimentally. […] Measurements for DiFMUP are limited to concentrations below 500 μM.
To start the reaction PHP1 was added from a stock solution to a final concentration of 0.1 in μM. The reaction was monitored by recording the increase in relative fluorescence at the respective fluorescence emission maxima in an SLM fluorescence spectrometer. To allow for quantification the fluorescence signal was normalised using a standard curve recorded for a serial dilution of fully dephosphorylated DiFMUP and FDP respectively. All recordings were carried out at the same PM-voltage and integration time with correction for the relative signal gain.

[4] = biological target: T1, PHP1; assay: Screening assay for inhibitors or activators of PHP1 with DiFMUP substrate; format: biochemical
Procedure: In order to test whether the phosphoamidase and protein phosphoamidase substrates of the present invention are suitable for the for identification of inhibitors or activators of these proteins, the activity of PHP1 was determined with the substrate DiFMUP in presence of bisperoxo-(bipyridine)-oxovanadate [(bp)V(bipy)], a well characterized inhibitor of protein phosphotyrosine phosphatase(FIG. 9). The inhibitor concentration varied from 0.01 to 30 μM, the enzyme concentration was kept at 0.1 μM and substrate concentration at 50 μM. After incubation for 15 min at room temperature the fluorescence was detected at 450 nm on excitation at 360 nm.
The reaction mixtures for inhibitor screening were prepared by serial 2 fold dilution of the inhibitor bpV(bipy) (Alexis Biochemicals San Diego) starting at 60 μM into 50 μl of the assay buffer consisting of 25 mM Hepes pH=7, 20 mM NaCl, 1 mM MgCl2, 0.01 mg/ml BSA. In a next step 50 μl of a solution of 0.3 μM PHP1 in assay buffer was added to each well and incubated for 5 min at room temperature. In order to initiate the reaction a pre dilution of 50 μM DiFMUP-substrate in assay-buffer was rapidly added to all wells. The reaction was monitored by recording the increase in relative fluorescence at the respective fluorescence emission maxima (Fluoromax Gemini XL microplate reader). The relative activity was calculated using the RFU derived from a control reaction without inhibitor.

[5] = 0.1 μM PHP1, 50 μM DiFMUP, inhibitor 0.01 to 30 μM

| turnover rate by PHP1 in more alkaline media [1] | Compound | acceptance as substrate by PHP1 [1] | other results |
| --- | --- | --- | --- |
| decrease in turnover rate | Cc1cc(=O)oc2c(F)c(OP(=O)(O)O)c(F)cc12 [DiFMUP, 6,8-difluoro-4-methylum-belliferyl phosphate] | accepts | Km [2]: 20 µM; Km ([3]; estimated from Lineweaver-Burk plot, read-out: KM-value for PHP1): > 1000 µM |
|  | O=[N+]([O-])c1ccc(OP(=O)(O)O)cc1 [pNPP, para-nitrophenol phosphate] | not recognised and processed by PHP1 at any pH |  |
| second distinct maximum | fluorescein diphosphate [FDP] | accepts | Km ([3]; non-linear curve fit, high uncertainty, read-out: Michaelis constant KM for PHP1): ~20 µM |
|  | bisperoxo-(bipyridine)-oxovanadate [(bp)V(bipy)] |  | concentration showing inhibitory effect on PHP1 [4, 5]: above 10 μM; inhibition of PHP1 activity [4, 5]: reproducible and clearly dose-dependent inhibition; activation of PHP1 activity ([4]; equimolar concentrations (0.1 μM PHP1), 50 μM DiFMUP): by a factor of two |

| Compound | turnover rate by PHP1 in more alkaline media [1] | acceptance as substrate by PHP1 [1] | other results |
| --- | --- | --- | --- |
| CC1(C)C2=C(Cl)C(=O)C(Cl)=CC2=Nc2ccc(OP(=O)(O)O)cc21 [DDAO, 9H-(1,3-dichloro-9,9-dimethyl-acridin-2-one-7-yl)phosphate] | stays relatively constant | accepts |  |
